How the values were obtained:
[1] = target: Calcium/calmodulin-dependent protein kinase type II subunit delta (Homo sapiens) (UniProt Q13557)
[2] = target: Serine/threonine-protein kinase pim-2 (Homo sapiens, UniProt Q9P1W9)
[3] = target: Mitogen-activated protein kinase 11 (Homo sapiens, UniProt Q15759)
[4] = target: T1, Myotonin-protein kinase (Homo sapiens) (UniProt Q09013)
T1 sequence (whole entry): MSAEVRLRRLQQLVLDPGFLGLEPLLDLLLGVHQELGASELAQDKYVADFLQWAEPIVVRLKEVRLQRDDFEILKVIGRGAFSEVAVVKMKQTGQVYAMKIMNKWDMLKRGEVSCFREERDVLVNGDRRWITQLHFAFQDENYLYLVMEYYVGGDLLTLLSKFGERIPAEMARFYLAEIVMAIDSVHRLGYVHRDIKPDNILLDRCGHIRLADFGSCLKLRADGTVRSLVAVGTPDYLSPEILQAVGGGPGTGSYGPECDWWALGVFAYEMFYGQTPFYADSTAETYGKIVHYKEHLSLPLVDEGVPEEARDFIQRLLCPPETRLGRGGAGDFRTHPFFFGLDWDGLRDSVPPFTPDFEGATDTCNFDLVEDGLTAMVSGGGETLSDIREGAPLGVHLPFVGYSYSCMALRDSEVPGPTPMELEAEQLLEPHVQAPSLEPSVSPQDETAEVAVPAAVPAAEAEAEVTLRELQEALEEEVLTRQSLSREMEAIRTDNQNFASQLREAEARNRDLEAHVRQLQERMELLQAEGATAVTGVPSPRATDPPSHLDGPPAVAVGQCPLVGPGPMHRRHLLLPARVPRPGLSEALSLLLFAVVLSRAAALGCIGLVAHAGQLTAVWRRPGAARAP

[5] = target: T2, 3-phosphoinositide-dependent protein kinase 1 (Homo sapiens) (UniProt O15530)
T2 sequence (whole entry): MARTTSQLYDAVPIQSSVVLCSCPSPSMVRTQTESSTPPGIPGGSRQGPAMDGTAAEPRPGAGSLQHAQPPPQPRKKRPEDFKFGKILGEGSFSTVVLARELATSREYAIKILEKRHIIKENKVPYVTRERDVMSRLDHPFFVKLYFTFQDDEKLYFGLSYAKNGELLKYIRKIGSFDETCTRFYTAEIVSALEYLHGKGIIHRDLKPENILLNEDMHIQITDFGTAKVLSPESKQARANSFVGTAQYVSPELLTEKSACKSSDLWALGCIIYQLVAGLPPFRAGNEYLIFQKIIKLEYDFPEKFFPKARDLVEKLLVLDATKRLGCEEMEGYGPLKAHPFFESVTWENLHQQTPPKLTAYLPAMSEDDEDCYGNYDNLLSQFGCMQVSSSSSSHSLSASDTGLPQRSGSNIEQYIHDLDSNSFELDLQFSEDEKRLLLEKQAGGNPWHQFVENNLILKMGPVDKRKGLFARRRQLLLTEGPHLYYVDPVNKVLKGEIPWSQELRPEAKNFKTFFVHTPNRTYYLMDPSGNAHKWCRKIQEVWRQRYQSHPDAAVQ

[6] = target: Serine/threonine-protein kinase pim-3 (Homo sapiens) (UniProt Q86V86)
[7] = target: Serine/threonine-protein kinase Chk2 (Homo sapiens, UniProt O96017)
Sequence of Serine/threonine-protein kinase Chk2 (O96017 whole entry): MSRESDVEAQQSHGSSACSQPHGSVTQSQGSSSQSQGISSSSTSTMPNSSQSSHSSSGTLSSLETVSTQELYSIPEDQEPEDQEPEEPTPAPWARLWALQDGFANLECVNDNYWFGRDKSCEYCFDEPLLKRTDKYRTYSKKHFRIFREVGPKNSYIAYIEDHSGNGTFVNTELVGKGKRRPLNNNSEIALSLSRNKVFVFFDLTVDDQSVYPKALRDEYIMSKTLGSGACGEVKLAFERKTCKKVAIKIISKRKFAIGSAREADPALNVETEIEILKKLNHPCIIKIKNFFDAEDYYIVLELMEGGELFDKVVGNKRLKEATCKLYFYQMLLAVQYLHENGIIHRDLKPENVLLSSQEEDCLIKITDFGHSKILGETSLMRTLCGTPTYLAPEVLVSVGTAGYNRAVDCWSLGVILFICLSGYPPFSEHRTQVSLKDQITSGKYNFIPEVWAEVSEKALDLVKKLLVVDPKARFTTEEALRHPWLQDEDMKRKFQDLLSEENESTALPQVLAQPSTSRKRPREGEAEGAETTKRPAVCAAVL

[8] = target: TRAF2 and NCK-interacting protein kinase (Homo sapiens) (UniProt Q9UKE5)
Sequence of TRAF2 and NCK-interacting protein kinase (Homo sapiens) (Q9UKE5 whole entry, looked up): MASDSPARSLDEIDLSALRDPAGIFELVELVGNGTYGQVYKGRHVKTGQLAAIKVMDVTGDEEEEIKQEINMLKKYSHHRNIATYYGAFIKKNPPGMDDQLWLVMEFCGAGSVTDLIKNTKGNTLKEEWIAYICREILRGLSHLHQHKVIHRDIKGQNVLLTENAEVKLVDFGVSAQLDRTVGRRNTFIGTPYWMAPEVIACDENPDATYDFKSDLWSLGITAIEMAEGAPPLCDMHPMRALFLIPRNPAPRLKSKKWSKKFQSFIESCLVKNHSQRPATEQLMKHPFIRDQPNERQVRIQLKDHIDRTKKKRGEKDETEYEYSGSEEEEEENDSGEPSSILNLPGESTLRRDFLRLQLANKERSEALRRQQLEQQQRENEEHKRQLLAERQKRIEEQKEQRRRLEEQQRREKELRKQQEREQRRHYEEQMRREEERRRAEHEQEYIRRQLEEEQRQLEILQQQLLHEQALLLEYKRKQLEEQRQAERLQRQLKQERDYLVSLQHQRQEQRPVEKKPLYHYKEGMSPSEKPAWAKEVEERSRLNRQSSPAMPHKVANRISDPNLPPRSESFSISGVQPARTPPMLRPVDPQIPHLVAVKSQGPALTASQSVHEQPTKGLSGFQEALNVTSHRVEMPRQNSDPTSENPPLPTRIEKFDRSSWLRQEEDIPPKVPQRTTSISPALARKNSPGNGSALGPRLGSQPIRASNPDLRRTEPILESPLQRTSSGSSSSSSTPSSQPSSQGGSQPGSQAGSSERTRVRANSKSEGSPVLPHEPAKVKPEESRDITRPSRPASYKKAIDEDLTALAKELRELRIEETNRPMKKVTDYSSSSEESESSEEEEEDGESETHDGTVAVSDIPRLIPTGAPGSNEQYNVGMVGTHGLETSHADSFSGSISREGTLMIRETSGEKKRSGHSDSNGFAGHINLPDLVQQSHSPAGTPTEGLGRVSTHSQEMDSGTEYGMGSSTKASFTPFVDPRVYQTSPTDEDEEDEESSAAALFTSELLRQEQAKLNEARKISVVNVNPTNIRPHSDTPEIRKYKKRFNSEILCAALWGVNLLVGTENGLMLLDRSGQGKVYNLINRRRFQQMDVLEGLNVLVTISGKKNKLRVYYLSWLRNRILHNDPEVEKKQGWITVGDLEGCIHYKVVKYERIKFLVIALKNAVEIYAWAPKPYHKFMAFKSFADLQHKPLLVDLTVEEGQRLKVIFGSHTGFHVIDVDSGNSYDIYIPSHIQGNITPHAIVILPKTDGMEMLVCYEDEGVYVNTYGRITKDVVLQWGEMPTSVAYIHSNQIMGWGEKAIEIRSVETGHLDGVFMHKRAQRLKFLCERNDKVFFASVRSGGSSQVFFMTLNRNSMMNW

[9] = target: Ribosomal protein S6 kinase alpha-3 (Homo sapiens) (UniProt P51812)
[10] = target: Calcium/calmodulin-dependent protein kinase type II subunit gamma (Homo sapiens) (UniProt Q13555)
[11] = target: T3, Calcium/calmodulin-dependent protein kinase type IV (Homo sapiens) (UniProt Q16566)
T3 sequence (whole entry): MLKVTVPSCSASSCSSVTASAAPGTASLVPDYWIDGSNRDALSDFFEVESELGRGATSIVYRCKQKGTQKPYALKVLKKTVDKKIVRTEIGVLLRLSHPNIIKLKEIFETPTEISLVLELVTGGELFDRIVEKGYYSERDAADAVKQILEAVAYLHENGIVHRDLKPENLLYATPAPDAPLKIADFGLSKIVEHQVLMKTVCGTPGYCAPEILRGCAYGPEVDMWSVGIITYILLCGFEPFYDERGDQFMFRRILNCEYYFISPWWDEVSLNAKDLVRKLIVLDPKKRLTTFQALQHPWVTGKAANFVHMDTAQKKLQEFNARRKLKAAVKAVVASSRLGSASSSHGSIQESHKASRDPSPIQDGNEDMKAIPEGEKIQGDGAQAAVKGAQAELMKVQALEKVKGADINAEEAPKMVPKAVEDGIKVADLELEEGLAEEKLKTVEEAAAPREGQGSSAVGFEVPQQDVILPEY

[12] = target: Serine/threonine-protein kinase RIO2 (Homo sapiens) (UniProt Q9BVS4)
Sequence of Serine/threonine-protein kinase RIO2 (Homo sapiens) (Q9BVS4 whole entry, looked up): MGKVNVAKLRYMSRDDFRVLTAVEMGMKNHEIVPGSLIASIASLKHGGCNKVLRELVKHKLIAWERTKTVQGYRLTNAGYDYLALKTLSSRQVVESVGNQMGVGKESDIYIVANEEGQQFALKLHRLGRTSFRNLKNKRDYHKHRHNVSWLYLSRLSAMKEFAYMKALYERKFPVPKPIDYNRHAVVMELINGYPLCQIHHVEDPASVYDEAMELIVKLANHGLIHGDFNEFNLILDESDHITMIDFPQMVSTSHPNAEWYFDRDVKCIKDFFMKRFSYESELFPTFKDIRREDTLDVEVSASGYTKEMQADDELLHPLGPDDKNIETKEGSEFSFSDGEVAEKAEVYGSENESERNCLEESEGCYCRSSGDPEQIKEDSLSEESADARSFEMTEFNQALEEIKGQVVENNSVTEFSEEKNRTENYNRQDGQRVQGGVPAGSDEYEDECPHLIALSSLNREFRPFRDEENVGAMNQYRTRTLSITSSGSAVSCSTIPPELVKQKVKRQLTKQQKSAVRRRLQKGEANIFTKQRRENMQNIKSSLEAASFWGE

[13] = target: Serine/threonine-protein kinase 16 (Homo sapiens) (UniProt O75716)
[14] = target: Calcium/calmodulin-dependent protein kinase type II subunit alpha (Homo sapiens) (UniProt Q9UQM7)
Sequence of Calcium/calmodulin-dependent protein kinase type II subunit alpha (Homo sapiens) (Q9UQM7 whole entry): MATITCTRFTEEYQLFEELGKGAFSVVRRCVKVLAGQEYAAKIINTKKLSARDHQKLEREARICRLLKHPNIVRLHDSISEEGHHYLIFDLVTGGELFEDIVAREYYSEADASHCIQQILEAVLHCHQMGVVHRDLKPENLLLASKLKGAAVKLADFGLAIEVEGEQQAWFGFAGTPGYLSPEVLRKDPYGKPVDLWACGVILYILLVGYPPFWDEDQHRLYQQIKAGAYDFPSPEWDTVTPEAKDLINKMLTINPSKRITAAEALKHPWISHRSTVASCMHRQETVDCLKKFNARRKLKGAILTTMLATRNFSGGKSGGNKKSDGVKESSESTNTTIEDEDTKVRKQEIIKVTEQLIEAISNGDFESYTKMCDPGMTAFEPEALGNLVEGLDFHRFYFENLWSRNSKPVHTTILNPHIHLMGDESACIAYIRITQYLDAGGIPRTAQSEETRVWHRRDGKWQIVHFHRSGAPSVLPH

[15] = target: Serine/threonine-protein kinase PLK1 (Homo sapiens) (UniProt P53350)
Sequence of Serine/threonine-protein kinase PLK1 (Homo sapiens) (P53350 whole entry): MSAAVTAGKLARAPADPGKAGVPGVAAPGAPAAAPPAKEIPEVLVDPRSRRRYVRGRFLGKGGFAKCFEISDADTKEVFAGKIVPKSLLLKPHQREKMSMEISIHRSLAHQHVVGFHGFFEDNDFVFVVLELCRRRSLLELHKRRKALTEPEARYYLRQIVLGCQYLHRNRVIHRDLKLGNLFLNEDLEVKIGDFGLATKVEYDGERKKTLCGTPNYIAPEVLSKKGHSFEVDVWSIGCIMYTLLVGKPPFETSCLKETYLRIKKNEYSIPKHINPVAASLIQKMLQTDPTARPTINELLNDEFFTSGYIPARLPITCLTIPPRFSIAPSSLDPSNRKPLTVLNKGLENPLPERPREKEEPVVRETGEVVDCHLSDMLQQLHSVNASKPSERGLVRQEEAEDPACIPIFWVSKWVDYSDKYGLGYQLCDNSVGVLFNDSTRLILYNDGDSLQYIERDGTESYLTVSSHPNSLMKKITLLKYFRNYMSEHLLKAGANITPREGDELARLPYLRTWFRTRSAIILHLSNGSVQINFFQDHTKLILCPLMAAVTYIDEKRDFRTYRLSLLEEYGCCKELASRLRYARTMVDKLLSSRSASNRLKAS

[16] = target: Calcium/calmodulin-dependent protein kinase type 1G (Homo sapiens) (UniProt Q96NX5)
Sequence of Calcium/calmodulin-dependent protein kinase type 1G (Homo sapiens) (Q96NX5 whole entry): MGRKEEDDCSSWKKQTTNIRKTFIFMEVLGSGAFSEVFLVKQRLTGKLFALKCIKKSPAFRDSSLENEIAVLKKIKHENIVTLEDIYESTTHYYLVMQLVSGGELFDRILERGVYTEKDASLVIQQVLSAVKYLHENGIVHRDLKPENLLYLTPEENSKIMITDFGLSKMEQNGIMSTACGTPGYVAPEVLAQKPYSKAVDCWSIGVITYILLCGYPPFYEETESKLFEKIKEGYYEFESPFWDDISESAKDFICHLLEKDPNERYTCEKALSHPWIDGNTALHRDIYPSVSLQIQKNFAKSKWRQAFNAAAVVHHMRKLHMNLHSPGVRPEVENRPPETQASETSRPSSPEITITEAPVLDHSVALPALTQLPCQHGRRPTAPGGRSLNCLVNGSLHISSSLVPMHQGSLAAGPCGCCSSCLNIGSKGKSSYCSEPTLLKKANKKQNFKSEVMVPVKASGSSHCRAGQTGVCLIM

[17] = target: T4, Lymphokine-activated killer T-cell-originated protein kinase (Homo sapiens) (UniProt Q96KB5)
T4 sequence (whole entry): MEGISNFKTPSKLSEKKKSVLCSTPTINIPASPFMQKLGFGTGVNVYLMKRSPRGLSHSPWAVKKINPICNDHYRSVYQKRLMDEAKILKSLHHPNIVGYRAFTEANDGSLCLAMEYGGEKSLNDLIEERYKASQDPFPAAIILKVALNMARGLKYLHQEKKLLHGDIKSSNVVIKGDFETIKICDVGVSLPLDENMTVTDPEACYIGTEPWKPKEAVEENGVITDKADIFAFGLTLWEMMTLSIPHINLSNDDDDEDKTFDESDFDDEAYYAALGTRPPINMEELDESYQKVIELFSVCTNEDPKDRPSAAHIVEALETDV

Sequence of Serine/threonine-protein kinase pim-2 (Q9P1W9 whole entry, looked up): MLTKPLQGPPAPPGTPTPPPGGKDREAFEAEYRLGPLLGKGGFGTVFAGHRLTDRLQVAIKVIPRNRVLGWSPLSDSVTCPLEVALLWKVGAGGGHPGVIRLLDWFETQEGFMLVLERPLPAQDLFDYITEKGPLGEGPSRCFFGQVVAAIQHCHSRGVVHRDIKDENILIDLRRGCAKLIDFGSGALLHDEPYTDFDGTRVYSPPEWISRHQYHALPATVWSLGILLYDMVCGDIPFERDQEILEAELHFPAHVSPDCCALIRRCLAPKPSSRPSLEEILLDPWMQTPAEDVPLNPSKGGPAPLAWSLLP
Sequence of Mitogen-activated protein kinase 11 (Q15759 whole entry): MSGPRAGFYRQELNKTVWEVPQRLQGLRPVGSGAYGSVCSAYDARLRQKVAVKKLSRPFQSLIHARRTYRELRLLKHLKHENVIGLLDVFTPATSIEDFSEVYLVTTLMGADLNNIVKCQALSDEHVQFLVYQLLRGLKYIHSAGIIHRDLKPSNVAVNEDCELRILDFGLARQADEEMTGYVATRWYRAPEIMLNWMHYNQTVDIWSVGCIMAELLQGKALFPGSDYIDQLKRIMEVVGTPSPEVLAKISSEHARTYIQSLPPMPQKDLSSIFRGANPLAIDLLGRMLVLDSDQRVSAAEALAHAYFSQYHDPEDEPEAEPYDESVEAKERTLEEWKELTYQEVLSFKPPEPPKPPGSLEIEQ

SMILES | ΔTm [1] [°C] | ΔTm [2] [°C] | ΔTm [3] [°C] | ΔTm [4] [°C] | ΔTm [5] [°C] | ΔTm [6] [°C] | ΔTm [7] [°C] | ΔTm [8] [°C] | ΔTm [9] [°C] | ΔTm [10] [°C] | ΔTm [11] [°C] | ΔTm [12] [°C] | ΔTm [13] [°C] | ΔTm [14] [°C] | ΔTm [15] [°C] | ΔTm [16] [°C] | ΔTm [17] [°C]
Cc1ccc(NC2=CC(=O)c3sc(C)nc3C2=O)cc1 | 0.1 | -0.6 | -0.6 | -2.4 | -3.4 | -0.4 | -1.8 | -1.4 | -0.5 | -2 | 3.7 | 0.6 | -1.2 | -0.7 | -0.2 | -1.4 | 
NC(=O)c1ccc2[nH]c(-c3ccc(Oc4ccc(Cl)cc4)cc3)nc2c1 | 1.5 | 1 | -0.4 | 1.3 | -0.5 | -0.8 |  | -1.6 | 0.7 | -0.1 | -0.4 | 2.4 | 4.7 | 0.1 | 4.4 | 2.6 | 0.9
Cc1nc(N)sc1-c1ccnc(Nc2cccc([N+](=O)[O-])c2)n1 | -0.4 | 8.1 | 1.2 | 7.6 | 1.9 | 1.8 | 9.7 | 0.9 | 5.9 | 1 | 1.8 | 3.6 | 2.9 | 1.4 | 4.6 | 4.1 | 
O=C1Nc2ccccc2/C1=C\c1ccc[nH]1 | -0.5 | 0.8 | 0.3 | -0.6 | 0.9 | 2.1 | 4.1 | 6.2 |  | 1.4 | 0.6 | 3 | 4.3 | 1.2 | -0.6 | 1.9 | -0.5
CC(C)[C@H](CO)Nc1nc(Nc2cc(N)cc(Cl)c2)c2ncn(C(C)C)c2n1 [AMINOPURVALANOL] | 0.3 | -0.1 | 2.8 | 2 | 1.4 | 6.7 | 7.5 |  | -0.1 | 1.3 | 4.2 | 4.5 | 0.2 | 0.5 | 1 | 0.5 | 
COc1ccc(Cl)cc1NC(=O)Nc1cc(C)nc2ccccc12 | 0.9 | 1 | 1.4 | 0.1 | 3 | 0.8 | 2.4 |  | 2.2 | -0.5 | 0.6 | 0.6 | 0.4 | -0.5 | 0.9 | 4.4 | 
CN1CCc2[nH]c(=S)c(C#N)c(-c3cccs3)c2C1 | -0.8 | -0.3 | 4.3 | 7.8 | 1.5 | 4.2 | 5.3 |  | 0.7 | 1 | 1.9 | 0.3 | 0.5 | 0.8 | 2.4 | 2.5 | 
O=C(Nc1cccc(Nc2cc(Nc3cccc(C(F)(F)F)c3)ncn2)c1)C1CC1 | -2 | 2.3 | 2.8 | 4 | 1.7 | 0.1 | 2.4 | -0.2 | 5.6 | -2 | -0.4 | 3.4 | 3.4 | 1.8 | 0 | 3.7 | 
O=C(Nc1cccc(Nc2nccc(Nc3cccc(C(F)(F)F)c3)n2)c1)C1CC1 [ANILINOPYRIMIDINE1] | 0.6 | 6.9 | 0.8 | 9.3 | 1.6 | -0.7 | 3.8 | 0.2 | 4.8 | 0.2 | 0.7 | 3.7 | 2.3 | 0.3 | 3.3 | 3.8 | 
CC(C)c1nn(-c2c(Cl)cccc2Cl)c2nc(Cc3ccc(OCCO)cc3)[nH]c(=O)c12 | 0.6 | -0.1 | 0.7 | -1.2 | 0 | -0.4 | 3.6 | 0 | -0.9 | 0.7 | -3.4 | 0.1 | 1.4 | 0.4 | 1.4 | 0.3 | 
CN(c1cccnc1)c1cc2c(Nc3ccc(F)c(Cl)c3)c(C#N)cnc2cn1 | 2.7 | 10.7 | 0.7 | 5.3 | 1.2 | -0.2 | 5 | -1.2 | 8.5 | 1.9 | -3.4 | 6.1 | 8.7 | 3.4 | 0.7 | 2.4 | 
Oc1cc(O)cc(/C=C/c2ccc(O)c(O)c2)c1 [PICEATANNOL] | 0.1 | 2 | 0.8 | -0.5 | -0.4 | 3.5 | 1.9 | 0.4 |  | 0.2 | 0.2 | 0.6 | 4.4 | 0.8 | 2.3 | 0.5 | 0

Reference: ChEMBL document CHEMBL1145498, “A systematic interaction map of validated kinase inhibitors with Ser/Thr kinases” (Proc Natl Acad Sci U S A, 2007)
